{"source": "patent US11884675B2", "about": "“Heterocyclic compounds as triggering receptor expressed on myeloid cells 2 agonists and methods of use” (AMGEN INC., priority 2020, dated 2024)"}
{"target": "hTREM2 (Homo sapiens, UniProt Q9NZC2)", "sequence (Q9NZC2 19-230)": "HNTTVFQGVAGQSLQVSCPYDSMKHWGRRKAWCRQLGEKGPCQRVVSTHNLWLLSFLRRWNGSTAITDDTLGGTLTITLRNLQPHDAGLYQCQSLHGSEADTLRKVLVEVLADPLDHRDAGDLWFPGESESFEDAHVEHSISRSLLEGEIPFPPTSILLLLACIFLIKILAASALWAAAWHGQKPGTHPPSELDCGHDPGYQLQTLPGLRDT", "sequence (O43914 22-113 partner)": "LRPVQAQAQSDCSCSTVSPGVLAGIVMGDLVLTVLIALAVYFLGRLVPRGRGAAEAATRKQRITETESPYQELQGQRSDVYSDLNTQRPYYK", "experiment": "TREM2 activity by cellular Syk phosphorylation (AlphaScreen/AlphaLISA) in TREM2/DAP12-HEK cells, used for Examples 1-305", "type": "cell-based", "design": "expressed in transfected cells", "conditions": "HEK293 Cells", "text": "In vitro Measurement of Triggering Receptor Expressed on Myeloid Cells 2 activity using cellular phosphorylation of Spleen Tyrosine Kinase (“Syk”) Assays used for Examples 1-305\nPharmacological measurements of TREM2 signaling through DAP12 were made with TREM2 and DAP12 overexpressing HEK293 cells stable cell lines that had been single-cell cloned (“TREM2/DAP12-HEK”). The readout of the TREM2 signaling utilized Perkin Elmer AlphaScreen/AlphaLISA technology monitoring the phosphorylation levels of the Syk kinase. TREM2/DAP12-HEK cell lines were cultured in DMEM-F12 (Corning 10-092-CM) supplemented with 1X Penicillin/Streptomycin (Corning 30-002-CI), 1X GlutaMAX (Gibco 35050-061), and 10% Fetal Bovine Serum (Life Technologies 10099) referred to as “HEK Culture Medium”. Suspensions of TREM2/DAP12-HEK cells were prepared in HEK Culture Medium and dispensed into 384-well poly-D-lysine coated microplates (Corning 354661) at a density of 20,000 cells/well using a Multidrop Combi peristaltic microplate dispenser (Thermo), 25 μL volume of cell suspension/well. Plates containing cells were then incubated for 20 hours in a humidified cell culture incubator at 37° C. with 5% CO2 (Thermo). After incubation, culture medium was removed from all wells of each microplate and replaced with 20 μL of “Assay Buffer” comprised of DMEM-F12 (Corning 10-092-CM) supplemented with 1X Penicillin/Streptomycin (Corning 30-002-CI) and 0.1% Pluronic F-68 Polyol (MP Biomedical 092750049) using a Bravo 384-well pipette-based liquid handling system (Agilent). Assay Buffer contained diluted test articles (in 1% final DMSO concentration for compounds) or 100 nM anti-human/mouse TREM2 antibody (R&D Systems MAB17291) as a positive control, or 100 nM or rat IgG2B isotype Ab as a negative control (R&D Systems MAB0061). The plates were incubated with test articles and controls for 45 minutes at room temperature and then the medium was aspirated/removed from each well of the plates. A Multidrop Combi peristaltic liquid handler (Thermo) was used to dispense 15 μL/well of “Cell Lysis Immunoassay Buffer”. The Cell Lysis Immunoassay Buffer contained M-PER Mammalian Protein Extraction Reagent (Pierce/ThermoFisher 78505), 1X Halt Phosphatase Inhibitor Cocktail (ThermoFisher #78427), 0.1875 nM anti-phospho-Syk (Tyr525/526) (C87C1) rabbit mAb (Cell Signaling Technologies catalog #2710), and 1.5 nM biotinylated Mouse anti-human Syk (4D10) antibody (BD Biosciences, catalog #624008). Plates were incubated for 1 hour at room temperature after the addition of the Cell Lysis Immunoassay Buffer. The Multidrop Combi liquid handler was used to dispense 15 μL of AlphaScreen Acceptor Bead Solution containing 7.5 μg/mL anti-rabbit IgG (Fc specific) AlphaLISA Acceptor Beads (Perkin Elmer AL104R) in 1X Immunoassay buffer (Perkin Elmer AL000F) to each well of the microplates. The plates were incubated for 2 hours at room temperature. Following the incubation with the AlphaLISA Acceptor Bead Solution, a Multidrop Combi liquid handler (Thermo) was used to dispense 15 μL of AlphaScreen Donor Bead Solution containing 30 μg/mL of AlphaScreen Streptavidin Donor beads (Perkin Elmer 6760002B) in 1X Immunoassay buffer (Perkin Elmer AL000F) to each well of the microplates. Microplates were incubated for 2 hours protected from light sources as the AlphaScreen reagents are light sensitive. Once the final incubation was completed, an AlphaScreen signal was acquired from the donor and acceptor beads using an Envision high throughput multi-modal microplate reader (Perkin Elmer) calibrated to the plate type with the AlphaScreen mirror and filter-set in 384-well mode, 680 nanometer excitation wavelength. The total measurement time per well was 550 milliseconds with a 180 millisecond excitation time. […]", "units": {"EC50": "nM"}}
{"smiles": "Cc1cc([C@H]2CN(c3nc(-c4ccc(F)cc4F)c4ncc(C)nc4n3)CCO2)ccn1", "note": "[Example 8, 4-(2,4-difluorophenyl)-7-methyl-2-((2S)-2-(2-methyl-4-pyridinyl)-4-morpholinyl)pteridine]", "EC50": "≤ 50", "hTREM2 Emax": "++ (Emax>100 and ≤150)"}
{"smiles": "Cc1cc(F)ccc1-c1nc(N2CCO[C@@H](c3cnn(C)c3)C2)nc2nc(C)c(C)nc12", "note": "[Example 59, 4-(4-fluoro-2-methylphenyl)-6,7-dimethyl-2-((2S)-2-(1-methyl-1H-pyrazol-4-yl)-4-morpholinyl)pteridine]", "EC50": "50 to 500", "hTREM2 Emax": "+++ (Emax>150 and ≤250)"}
{"smiles": "Cc1nc2nc([C@H]3CCO[C@@H](c4cnn(C)c4)C3)nc(-c3ccc(Cl)cc3F)c2nc1C", "note": "(single isomer, unassigned) [Example 178]", "EC50": "≤ 50", "hTREM2 Emax": "++++ (Emax>250)"}
{"smiles": "Cc1cc([C@@H]2C[C@@H](c3nc(-c4ccc(F)cc4F)c4cc(C)c(C)nc4n3)CCO2)ccn1", "note": "(single isomer, unassigned) [Example 227]", "EC50": "≤ 50", "hTREM2 Emax": "+++ (Emax>150 and ≤250)"}
{"smiles": "Cc1cnc2c(-c3ccc(F)cc3F)nc(N3CCO[C@H]([C@@H]4CCOC4)C3)nc2n1", "note": "[Example 253, (R)-4-(4-(2,4-difluorophenyl)-7-methylpteridin-2-yl)-2-((R)-tetrahydrofuran-3-yl)morpholine]", "EC50": "3000 to 100000", "hTREM2 Emax": "+++ (Emax>150 and ≤250)"}
{"smiles": "Cc1nc2cc(N3CCO[C@@H](c4cnn(C5CC5)c4)C3)nc([C@H]3C[C@H](C(F)(F)F)C3)c2nc1C", "note": "[Example 81, 7-((2S)-2-(1-cyclopropyl-1H-pyrazol-4-yl)-4-morpholinyl)-2,3-dimethyl-5-(trans-3-(trifluoromethyl)cyclobutyl)pyrido[3,4-b]pyrazine]", "EC50": "50 to 500", "hTREM2 Emax": "++ (Emax>100 and ≤150)"}
{"smiles": "Cc1nc2nc(N3CCC(F)(F)[C@H](c4cnn(C)c4)C3)nc(-c3ccc(Cl)cc3F)c2nc1C", "note": "(single isomer, unassigned) [Example 124]", "EC50": "≤ 50", "hTREM2 Emax": "++++ (Emax>250)"}
{"smiles": "Cc1cnc2c(-c3ccc(F)cc3F)nc(N3CCO[C@@H](c4cnn(C)c4)C3)nc2n1", "note": "[Example 6, 4-(2,4-difluorophenyl)-7-methyl-2-((2S)-2-(1-methyl-1H-pyrazol-4-yl)-4-morpholinyl)pteridine]", "EC50": "50 to 500", "hTREM2 Emax": "+++ (Emax>150 and ≤250)"}
{"smiles": "Cc1cc([C@H]2C[C@@H](c3nc(-c4ccc(F)cc4F)c4nc(C)c(C)nc4n3)CCO2)ccn1", "note": "(single isomer, unassigned) [Example 211]", "EC50": "≤ 50", "hTREM2 Emax": "++++ (Emax>250)"}
{"smiles": "Cc1nc2nc(N3CCO[C@@H](c4cnn(C5CC5)c4)C3)nc(-c3ccc(F)cc3F)c2nc1C", "note": "[Example 32, 2-((2S)-2-(1-cyclopropyl-1H-pyrazol-4-yl)-4-morpholinyl)-4-(2,4-difluorophenyl)-6,7-dimethylpteridine]", "EC50": "≤ 50", "hTREM2 Emax": "+++ (Emax>150 and ≤250)"}
{"smiles": "Cc1nc2nc(N3CCO[C@@H](c4cnn(C)c4)C3)nc(N3CCC(C)(C)CC3)c2nc1C", "note": "[Example 67, 4-(4,4-dimethyl-1-piperidinyl)-6,7-dimethyl-2-((2S)-2-(1-methyl-1H-pyrazol-4-yl)-4-morpholinyl)pteridine]", "EC50": "50 to 500", "hTREM2 Emax": "+ (Emax>45 and ≤100)"}
{"smiles": "Cc1ccc(-c2nc([C@H]3CCO[C@@H](c4cnn(C)c4)C3)nc3nc(C)c(C)nc23)c(F)c1", "note": "(single isomer, unassigned) [Example 183]", "EC50": "≤ 50", "hTREM2 Emax": "++++ (Emax>250)"}
{"smiles": "Cc1nc2nc(N3CCO[C@@H](c4cnn(C)c4)C3)nc(-c3ccc(F)c(F)c3)c2nc1C", "note": "[Example 60, 4-(3,4-difluorophenyl)-6,7-dimethyl-2-((2S)-2-(1-methyl-1H-pyrazol-4-yl)-4-morpholinyl)pteridine]", "EC50": "≤ 50", "hTREM2 Emax": "+++ (Emax>150 and ≤250)"}
{"smiles": "Cc1cc([C@H]2CN(c3nc4nc(C)cnc4c([C@H]4C[C@@H](C(F)(F)F)C4)n3)CCO2)cnn1", "note": "[Example 280, (S)-4-(7-methyl-4-((1s,3R)-3-(trifluoromethyl)cyclobutyl)pteridin-2-yl)-2-(6-methylpyridazin-4-yl)morpholine]", "EC50": "500 to 3000", "hTREM2 Emax": "+++ (Emax>150 and ≤250)"}
{"smiles": "Cc1nc2nc(N3CCO[C@@H]([C@H]4CCOC4)C3)nc(-c3ccc(F)cc3F)c2nc1C", "note": "[Example 251, (S)-4-(4-(2,4-difluorophenyl)-6,7-dimethylpteridin-2-yl)-2-((S)-tetrahydrofuran-3-yl)morpholine]", "EC50": "500 to 3000", "hTREM2 Emax": "+++ (Emax>150 and ≤250)"}
{"smiles": "Cc1cc([C@H]2CN(c3cc(-c4ccc(Cl)cc4F)c4nc(C)c(C)nc4c3)CCO2)ccn1", "note": "[Example 163, 5-(4-chloro-2-fluorophenyl)-2,3-dimethyl-7-((2S)-2-(2-methyl-4-pyridinyl)-4-morpholinyl) quinoxaline]", "EC50": "≤ 50", "hTREM2 Emax": "++++ (Emax>250)"}
{"smiles": "Cc1cc([C@@H]2C[C@H](c3cc4nc(C)c(C)nc4c(-c4ccc(Cl)cc4F)n3)CCO2)ccn1", "note": "(relative stereo) [Example 217, 5-(4-chloro-2-fluorophenyl)-2,3-dimethyl-7-((2S,4R)-2-(2-methyl-4-pyridinyl)tetrahydro-2H-pyran-4-yl)pyrido [3,4-b]pyrazine]", "EC50": "50 to 500", "hTREM2 Emax": "+++ (Emax>150 and ≤250)"}
{"smiles": "Cc1ncc([C@H]2CN(c3nc(-c4ccc(Cl)cc4F)c4nc(C)c(C)nc4n3)CCO2)cn1", "note": "(single isomer, unassigned) [Example 24]", "EC50": "50 to 500", "hTREM2 Emax": "++++ (Emax>250)"}
{"smiles": "Cc1nc2nc(N3CCOC(C4CCOC4)C3)nc(-c3ccc(Cl)cc3F)c2nc1C", "note": "(centres unmarked) [Example 26, 4-(4-chloro-2-fluorophenyl)-6,7-dimethyl-2-(2-(tetrahydro-3-furanyl)-4-morpholinyl)pteridine]", "EC50": "≤ 50", "hTREM2 Emax": "++++ (Emax>250)"}
{"smiles": "Cc1cc([C@@H]2CN(c3nc4nc(C)cnc4c([C@H]4C[C@H](C(F)(F)F)C4)n3)CCO2)cnn1", "note": "[Example 281, (R)-4-(7-methyl-4-((1r,3S)-3-(trifluoromethyl)cyclobutyl)pteridin-2-yl)-2-(6-methylpyridazin-4-yl)morpholine]", "EC50": "500 to 3000", "hTREM2 Emax": "+++ (Emax>150 and ≤250)"}
{"smiles": "Cc1cnc2c(-c3ccc(Cl)cc3F)nc(N3CCO[C@@H](c4cnn(C5COC5)c4)C3)cc2n1", "note": "[Example 129, 5-(4-chloro-2-fluorophenyl)-2-methyl-7((2S)-2-(1-(3-oxetanyl)-1H-pyrazol-4-yl)-4-morpholinyl) pyrido[3,4-b]pyrazine]", "EC50": "50 to 500", "hTREM2 Emax": "++++ (Emax>250)"}
{"smiles": "Cc1cc([C@H]2CN(c3nc4nc(C)c(C)nc4c([C@H]4C[C@H](C(F)(F)F)C4)n3)CCO2)cnn1", "note": "[Example 51, 6,7-dimethyl-2-((2S)-2-(6-methyl-4-pyridazinyl)-4-morpholinyl)-4-(trans-3-(trifluoromethyl)cyclobutyl)pteridine]", "EC50": "≤ 50", "hTREM2 Emax": "+++ (Emax>150 and ≤250)"}
{"smiles": "Cc1cc2c(-c3ccc(F)cc3F)nc([C@@H]3CCO[C@H](c4cnn(C)c4)C3)nc2nc1C", "note": "(single isomer, unassigned) [Example 200]", "EC50": "500 to 3000", "hTREM2 Emax": "+++ (Emax>150 and ≤250)"}
{"smiles": "Cc1cc([C@H]2CN(c3nc4nc(C)cnc4c([C@H]4C[C@H](C(F)(F)F)C4)n3)CCO2)ccn1", "note": "[Example 16, 7-methyl-2-((2S)-2-(2-methyl-4-pyridinyl)-4-morpholinyl)-4-(trans-3-(trifluoromethyl)cyclobutyl)pteridine]", "EC50": "≤ 50", "hTREM2 Emax": "+ (Emax>45 and ≤100)"}
{"smiles": "Cc1cc([C@H]2CN(c3nc(C45CC(C(F)(F)F)(C4)C5)c4nc(C)c(C)nc4n3)CCO2)ccn1", "note": "[Example 65]", "EC50": "≤ 50", "hTREM2 Emax": "+++ (Emax>150 and ≤250)"}
